Reference: PMC11768664 (Viruses, 2024)
In brackets after ≈: the same amount, converted by molar mass. Several values for one entry are separate records, joined by “and”; a condition that tells them apart may be missing. Equal values may be shown once. Read-outs that look alike come from different tables or passages of the source.

What was measured:
[1] = tested on: W12I 20862 cervical precancer cells; test: Growth inhibition MTT assay on W12 clone 20862 (type 2 integrant); format: cell-based
[2] = tested on: W12E 20850 cervical precancer cells; test: Growth inhibition MTT assay on W12 clone 20850 (episomal HPV16); format: cell-based; conditions: for IC50: 120 h, read-out: IC50, growth inhibitory activity on W12 clone 20850
[3] = tested on: W12I 20861 cervical precancer cells; test: Growth inhibition MTT assay on W12 clone 20861 (type 2 integrant); format: cell-based; conditions: 120 h, read-out: IC50, growth inhibitory activity on W12 clone 20861
[4] = tested on: W12I 20822 cervical precancer cells; test: Growth inhibition MTT assay on W12 clone 20822 (type 1 integrant); format: cell-based
[5] = tested on: HeLa human cervical cancer cells; test: Growth inhibition (proliferation) MTT assay on HeLa cells; format: cell-based; conditions: for IC50: Homo sapiens
[6] = tested on: HT29 colon cancer cells; test: Growth inhibition (proliferation) MTT assay on HT29 cells; format: cell-based; conditions: Homo sapiens
[7] = tested on: cell cycle genes in HeLa cells; test: Gene expression analysis of HeLa cells treated with curcumin; format: cell-based, human; conditions: curcumin 32 µM, 8 h
[8] = biological target: Na^+/K^+-ATPase; design: method as in earlier work; conditions: read-out: IC50, inhibition of the activity of the Na+/K+-ATPase, cited from earlier work
[9] = tested on: J2 3T3 mouse embryo fibroblasts (feeder cells); test: Growth inhibition MTT assay on 3T3 feeder cells; format: cell-based; conditions: NIH3T3, read-out: IC50, growth inhibitory activity on 3T3 feeder cells
[10] = tested on: HeLa human cervical cancer cells; test: Combination growth inhibition assay and Combination Index on HeLa cells; format: cell-based
[11] = 120 h, read-out: IC50, growth inhibitory activity on W12 clone 20862
[12] = 120 h, read-out: IC50, growth inhibitory activity on W12 clone 20822
[13] = MTT, 96 h (Figure 1 legend; table footnote prints 120 h), read-out: IC50, growth inhibitory activity on HeLa cells
[14] = HT-29, HT29, MTT, 96 h (Figure 1 legend; table footnote prints 120 h), read-out: IC50, growth inhibitory activity on HT29 cells

Question: With `COC1=CC(=O)O[C@@H](CCc2ccc3c(c2)OCO3)C1` [DHM, dihydromethysticin] as the compound, how does the IC50 [1, 11] read?
Answer: 12.8 µg/mL

Question: What about the IC50 [2] of the same compound?
Answer: 24.7 µg/mL (≈ 89.4 µM)

Question: What about the IC50 [3] of the same compound?
Answer: 12.4 µg/mL (≈ 44.9 µM)

Question: What about the IC50 [4, 12] of the same compound?
Answer: 10.2 µg/mL

Question: Which IC50 [1, 11] does the source give for `CC(=O)O[C@@H]1C[C@@]23C[C@@]24CC[C@H](O[C@@H]2OC[C@@H](O)[C@H](O)[C@H]2O)C(C)(C)[C@@H]4CC[C@H]3[C@]2(C)C[C@@H]3O[C@]4(C[C@@H](C)[C@@H]3[C@@]12C)O[C@H](O)[C@@]1(C)O[C@@H]41` [actein] here?
Answer: 36.3 µg/mL

Question: What about the IC50 [2] of the same compound?
Answer: 41.7 µg/mL (≈ 61.6 µM)

Question: And the IC50 [3]?
Answer: 37.9 µg/mL (≈ 56 µM)

Question: What about the IC50 [4, 12] of the same compound?
Answer: 55.7 µg/mL

Question: With `CC(C)c1cc2c(c(O)c1O)[C@@]1(C(=O)O)CCCC(C)(C)[C@@H]1CC2` [carnosic acid] as the compound, how does the IC50 [1, 11] read?
Answer: 10 µg/mL

Question: What about the IC50 [5, 13] of the same compound?
Answer: 2.03 µg/mL (≈ 6.11 µM)

Question: And the IC50 [2]?
Answer: 13 µg/mL (≈ 39.1 µM)

Question: And the IC50 [3]?
Answer: 14.1 µg/mL (≈ 42.4 µM)

Question: What about the IC50 [4, 12] of the same compound?
Answer: 10.7 µg/mL

Question: What about the IC50 [6, 14] of the same compound?
Answer: 2.13 µg/mL (≈ 6.41 µM)

Question: With `COc1cc(/C=C/C(=O)CC(=O)/C=C/c2ccc(O)c(OC)c2)ccc1O` [curcumin] as the compound, how does the “Ratio, ATM (NM_000051)” value [7] read?
Answer: 15.43

Question: What about the “Ratio, CDC6 (NM_001254)” value [7] of the same compound?
Answer: 2.68

Question: And the “Ratio, CDC20 (NM_016263)” value [7]?
Answer: 19.4

Question: And the “Ratio, CDKN1B (NM_004064)” value [7]?
Answer: 2.77

Question: And the “Ratio, E2F4 (NM_001950)” value [7]?
Answer: 2.37

Question: And the “Ratio, E2F5 (NM_001951)” value [7]?
Answer: 2.94

Question: And the “Ratio, GSK3B (NM_002093)” value [7]?
Answer: 2.09

Question: And the “Ratio, ORC1L (NM_004153)” value [7]?
Answer: 3.10

Question: And the “Ratio, PLK1 (NM_005030)” value [7]?
Answer: 2.01

Question: And the “Ratio, SKP2 (NM_005983)” value [7]?
Answer: 5.03

Question: What about the “Ratio, SMAD4 (NM_005359)” value [7] of the same compound?
Answer: 3.49

Question: And the “Ratio, SMC3 (NM_005445)” value [7]?
Answer: −3.89

Question: What about the “Ratio, STAG1 (NM_005862)” value [7] of the same compound?
Answer: 2.37

Question: What about the “Ratio, STAG2 (NM_001042749)” value [7] of the same compound?
Answer: −3.56

Question: And the “Ratio, ZBTB17 (NM_003443)” value [7]?
Answer: 2.48

Question: What about the “Ratio, ATM (NM_138292)” value ([7]; text prints fold) of the same compound?
Answer: 36 and 35.94

Question: What about the IC50 ([8]; as previously described) of the same compound?
Answer: 2000 nM

Question: Which IC50 ([5]; 96 h, read-out: Growth inhibitory Activity (ug/mL), HeLa Cells) does the source give for `C[C@H]1O[C@@H](O[C@H]2[C@@H](O)C[C@H](O[C@H]3[C@@H](O)C[C@H](O[C@H]4CC[C@@]5(C)[C@H](CC[C@@H]6[C@@H]5CC[C@]5(C)[C@@H](C7=CC(=O)OC7)CC[C@]65O)C4)O[C@@H]3C)O[C@@H]2C)C[C@H](O)[C@@H]1O` [digitoxin, reference compound] here?
Answer: 0.12 µg/mL (≈ 0.157 µM)

Question: And the IC50 ([8]; comparator, unit inferred)?
Answer: < 100 nM

Question: And the IC50 ([6]; HT-29, 96 h, read-out: Growth inhibitory Activity (ug/mL), HT29 Cells)?
Answer: 0.13 µg/mL (≈ 0.17 µM)

Question: For `C[C@H]1O[C@@H](O[C@H]2[C@@H](O)C[C@H](O[C@H]3[C@@H](O)C[C@H](O[C@H]4CC[C@@]5(C)[C@H](CC[C@@H]6[C@@H]5C[C@@H](O)[C@]5(C)[C@@H](C7=CC(=O)OC7)CC[C@]65O)C4)O[C@@H]3C)O[C@@H]2C)C[C@H](O)[C@@H]1O` [digoxin, reference compound], which IC50 [1, 11] is on record?
Answer: 0.0245 µg/mL

Question: What about the IC50 ([5]; read-out: IC50, growth inhibitory activity on HeLa cells) of the same compound?
Answer: 0.12 µg/mL (≈ 0.154 µM)

Question: What about the IC50 [2] of the same compound?
Answer: > 0.025 µg/mL

Question: What about the IC50 [3] of the same compound?
Answer: 0.0037 µg/mL (≈ 0.00474 µM)

Question: And the IC50 [4, 12]?
Answer: 0.008 µg/mL

Question: And the IC50 ([6]; HT-29, read-out: IC50, growth inhibitory activity on HT29 cells)?
Answer: 0.13 µg/mL (≈ 0.166 µM)

Question: And the IC50 [9]?
Answer: > 10 µg/mL

Question: With `C(=Cc1ccccc1)c1ccccc1` [stilbene] as the compound, how does the “IC50, growth inhibitory activity on HeLa cells” value ([5]; MTT, 96 h (Figure 1 legend; table footnote prints 120 h)) read?
Answer: greater than 100 µg/mL

Question: What does the source list for `Cc1coc2c1C(=O)C(=O)c1c-2ccc2c1CCCC2(C)C` [tanshinone IIA]?
Answer: IC50 ([1]; type 2 integrant, 120 h, MTT, read-out: IC50, growth inhibitory activity on W12 clone 20862): 3.1 µg/mL; IC50 ([1]; value quoted with the RT-PCR results, read-out: IC50, relative growth inhibitory effect on 20862): 2800 nM; IC50 ([5]; Figure 1C, 96 h, MTT, read-out: Growth inhibitory Activity (ug/mL), HeLa Cells): 1.4 µg/mL (≈ 4.76 µM); IC50 [5, 13]: 1.33 µg/mL (≈ 4.52 µM); percentage of viable cells ([10]; tanshinone IIA 0.2 μM alone, 90% curcuminoids experiment): 134%; percent viable cells ([10]; tanshinone IIA 0.2 µΜ alone, 95% curcuminoids experiment): 91.96%; IC50 ([2]; episomal, MTT): 2.3 µg/mL (≈ 7.81 µM); low concentration with significant activity on 20850 (episomal) cells ([2]; p = 0.0058): 2.5 µM; IC50 [3]: 1.4 µg/mL (≈ 4.76 µM); IC50 ([4]; type 1 integrant, 120 h, MTT, read-out: IC50, growth inhibitory activity on W12 clone 20822): 2 µg/mL; IC50 ([4]; value quoted with the RT-PCR results, read-out: IC50, relative growth inhibitory effect on 20822): 2100 nM; IC50 ([6]; HT-29, Figure 1C, 96 h, MTT, read-out: Growth inhibitory Activity (ug/mL), HT29 Cells): 1.3 µg/mL (≈ 4.42 µM); IC50 [6, 14]: 1.27 µg/mL (≈ 4.31 µM)

Question: Which “activity on 20850 cells, in words” value ([2]; after sonication, inverse pattern in a repeat experiment) does the source give for lambda carrageenan here?
Answer: highly active
